# In patent US20050222269A1, “Use of deprenyl compounds to treat viral infections and reduce tissue damage associated therewith” (priority 1998, published 2005):
# Columns and labels:
# [1] = Stability of deprenyl as a function of pH of the medium; assay type: physicochemical; details: pH about 3-5 versus pH about 7
# Text: The stability of deprenyl can be affected by the pH of the medium in which the deprenyl is formulated. […] Therefore, when formulating a deprenyl compound in a pharmaceutical composition, it is preferred that the deprenyl compound be maintained at a suitable pH. In preferred embodiments, a pharmaceutical composition of the invention has a pH in the range of about 3 to about 5, more preferably about 3 to about 4. Furthermore, ethyl alcohol is a preferred solvent for improving stability of deprenyl. Thus, in certain embodiments, alcoholic or aqueous alcoholic media are preferred for the pharmaceutical compositions of the invention.
# huBLCL/env cells = experiment: CTL-mediated killing (51Cr release) of huBLCL/env cells expressing SIV env; assay type: cell-based, human; details: for Percent Specific Lysis: hu BLCL/env target cells, compound 1.0 nM added at beginning of 5 hour assay, 51Cr release
# GAPDH = GAPDH (Homo sapiens, UniProt P04406); assay type: biochemical; details: gel filtration of GAPDH incubated with DMD
# Hela T4/env cells = experiment: CTL-mediated killing (51Cr release) of Hela T4/env cells expressing SIV env; assay type: cell-based; details: for Effect on CTL-mediated cell killing / lysis (in words): Hela T4/env cells; for Percent Specific Lysis: Hela T4/env target cells, compound 1.0 nM added at beginning of 5 hour assay, 51Cr release
# rh BLCL/env cells = experiment: CTL-mediated killing (51Cr release) of rh BLCL/env cells expressing SIV env; assay type: cell-based, rhesus monkey; details: for Effect on CTL-mediated cell killing / lysis (in words): rh BLCL/env cells; for Percent Specific Lysis: rh BLCL/env target cells, compound 1.0 nM added at beginning of 5 hour assay, 51Cr release
# ClR/env cells = experiment: CTL-mediated killing (51Cr release) of C1R/env cells expressing SIV env; assay type: cell-based, human; details: for Effect on CTL-mediated cell killing / lysis (in words): C1R/env cells; for Percent Specific Lysis: ClR/env target cells, compound 1.0 nM added at beginning of 5 hour assay, 51Cr release
# GAPDH, sequence (P04406 whole entry, species assumed): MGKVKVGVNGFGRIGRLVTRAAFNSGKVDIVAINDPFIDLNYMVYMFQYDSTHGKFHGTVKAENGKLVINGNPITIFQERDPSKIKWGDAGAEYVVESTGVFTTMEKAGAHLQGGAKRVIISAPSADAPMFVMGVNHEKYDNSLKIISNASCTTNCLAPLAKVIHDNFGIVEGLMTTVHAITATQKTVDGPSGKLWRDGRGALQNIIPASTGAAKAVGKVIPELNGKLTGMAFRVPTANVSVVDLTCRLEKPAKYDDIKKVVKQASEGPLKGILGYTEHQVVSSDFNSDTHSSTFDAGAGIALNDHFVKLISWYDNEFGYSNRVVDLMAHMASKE
Structure (SMILES),Stability depending on pH [1],Percent Specific Lysis (huBLCL/env cells),Effect on CTL-mediated cell killing / lysis (in words) (huBLCL/env cells; huBLCL/env cells),Effect on association of GAPDH monomers (tetrameric vs dimeric form) (GAPDH),Effect on CTL-mediated cell killing / lysis (in words) (Hela T4/env cells),Percent Specific Lysis (Hela T4/env cells),Effect on CTL-mediated cell killing / lysis (in words) (rh BLCL/env cells),Percent Specific Lysis (rh BLCL/env cells),Effect on CTL-mediated cell killing / lysis (in words) (ClR/env cells),Percent Specific Lysis (ClR/env cells)
"C#CCN(C)C(C)Cc1ccccc1 (stereo not drawn) [deprenyl, N,α-dimethyl-N-2-propynylphenethylamine]",more stable at a pH in the range of about 3-5 than at a pH of about 7,,,,,,,,,
"C#CCNC(C)Cc1ccccc1 (single isomer, unassigned; (-)) [Desm., (−)-desmethyldeprenyl]",,−1.85%,reduced cell killing in all four cell lines,inducing the conversion of GAPDH from the tetrameric form to the dimeric form,reduced cell killing in all four cell lines,30.65%,reduced cell killing in all four cell lines,4.34%,reduced cell killing in all four cell lines,6.98%
"CC(=O)N[C@@H](CS)C(=O)O [NAC, N-acetyl cysteine]",,13.41%,,,effective in reducing lysis,30.74%,effective in reducing lysis,6.32%,effective in reducing lysis,29.12%
